A short description of data set [1]: NIR fluorescence of coated stainless steel wires (fluorescent image system). The data set is classed as physicochemical. The conditions noted are these: PMMA film, dye 1 wt %; coated 1, 2, 3 or 5 times; FIG. 1. The method, then:
Polymethylmethacrylate is dissolved at 30 mg/ml in acetonitrile.
At this step the fiducial is ready to use.

Data set [2] in a line: Fluorescence of coating films made from different hydrophobic polymers (PMMA, PLGA, PLC). In kind it is physicochemical. The conditions noted are these: PLGA or PLC, FIG. 10A, 10B. As for the experimental part: The coating films based on ICG are prepared as control.
Coating films made from different polymers were also tested.

With `CCCCCCCCCCCCCCCCCCN1/C(=C/C=C/C=C/C=C/C2=[N+](CCCCCCCCCCCCCCCCCC)c3ccc4ccccc4c3C2(C)C)C(C)(C)c2c1ccc1ccccc21` [Cy7.5-C18-TPB, Dioctadecylcyanine 7.5 tetraphenylborate], the “NIR fluorescence of coating film on stainless steel wire” value in data set [1] is “visible after the first coating and increases by multiple coating”. Also, the “brightness of coating films, different polymers” value in data set [2] is given as “better brightness than a coating film based on ICG”.

For the molecule `CCCCCCCCCCCCCCCCCCN1/C(=C/C=C2\CCCC(/C=C/C3=[N+](CCCCCCCCCCCCCCCCCC)c4ccc5ccccc5c4C3(C)C)=C2Oc2c(-c3ccccc3)cccc2-c2ccccc2)C(C)(C)c2c1ccc1ccccc21.[I-]` [HA-06-I], the “brightness of coating films, different polymers” value in data set [2] is on record as “better brightness than a coating film based on ICG”.

The values are drawn from US12291654B2, “Fluorescent polymeric coating film for medical devices” (UNIVERSITE DE STRASBOURG, priority 2018, dated 2025).
